Where two headings read alike, the source gives them in different places.
Molecular target: T1, His-PKC-theta (Homo sapiens, UniProt Q04759)
T1 construct: His; purchased Invitrogen
Assay: PKC-theta Assay (384-well time resolved fluorescence, IMAP TR-FRET)
Format: biochemical
Settings: read-out: Act. Level (IC50 in the PKC-theta Assay)
Experimental: PKC-theta Assay. A 384-well time resolved fluorescence assay was used to monitor PKC-theta activity. The PKC-theta assay was run in the following assay buffer: 50 mM HEPES pH 7.6, 10 mM MgCl2, 1 mM DTT, 0.01% Triton X-100, 0.01% BSA and 0.1 mM EDTA. To initiate the reaction, 200 nM of Fam-labeled S6-derived peptide (Molecular Devices) and 10 μM of ATP were mixed with 142 pM of His-PKC-theta (Invitrogen) for a total assay volume of 25 μL in each well. The assay was incubated at room temperature for 2 hours and terminated using a 60 μL/well mixture of Detection Binding Solution: 70% IMAP Progressive Binding Buffer A, 30% IMAP Progressive Binding Buffer B, 1:600 Progressive Binding Reagent, and 1:400 TR-FRET Tb Donor (Molecular Devices). The assay plates were then incubated overnight at room temperature and read on a Perkin-Elmer Envision Reader.

T1 sequence (Q04759 whole entry): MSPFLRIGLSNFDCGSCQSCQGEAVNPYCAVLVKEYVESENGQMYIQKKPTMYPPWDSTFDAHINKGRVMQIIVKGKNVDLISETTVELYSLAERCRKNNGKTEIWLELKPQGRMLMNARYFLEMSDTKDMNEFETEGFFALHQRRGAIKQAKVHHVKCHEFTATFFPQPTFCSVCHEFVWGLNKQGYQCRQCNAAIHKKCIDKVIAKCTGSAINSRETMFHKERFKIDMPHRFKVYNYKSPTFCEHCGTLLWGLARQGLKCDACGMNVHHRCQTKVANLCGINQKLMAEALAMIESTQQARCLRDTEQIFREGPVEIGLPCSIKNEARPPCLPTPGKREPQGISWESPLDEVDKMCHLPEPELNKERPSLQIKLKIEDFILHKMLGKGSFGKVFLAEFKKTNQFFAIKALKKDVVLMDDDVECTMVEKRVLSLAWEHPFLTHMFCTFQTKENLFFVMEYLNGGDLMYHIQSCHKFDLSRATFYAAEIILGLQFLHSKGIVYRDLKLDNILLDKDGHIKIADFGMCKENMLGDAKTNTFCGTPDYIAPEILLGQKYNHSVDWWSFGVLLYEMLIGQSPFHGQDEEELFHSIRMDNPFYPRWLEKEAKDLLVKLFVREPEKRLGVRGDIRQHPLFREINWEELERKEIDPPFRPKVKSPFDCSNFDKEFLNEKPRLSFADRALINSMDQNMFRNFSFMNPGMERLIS

Row | SMILES | IC50 [nM] | IC50 (Table 2) [nM]
1 | CC(C)(F)c1ncncc1CNc1ncc(C(F)(F)F)c(N[C@@H]2C[C@H](O)C2(C)C)n1 [Cmpd 1] | < 100 | –
2 | CC1(C)[C@@H](O)C[C@H]1Nc1nc(NCc2cncnc2OCCC(F)(F)F)ncc1C(F)(F)F [Cmpd 2] | < 100 | –
3 | Cc1nnnn1-c1ccccc1CNc1ncc(C(F)(F)F)c(NC2CCC(O)C(C)(C)C2)n1 (stereo not shown) [Cmpd 2] | – | < 100
4 | COC1CC(Nc2nc(NCc3cnccc3C(F)(F)F)ncc2C(F)(F)F)C1(C)C (stereo not shown) [Cmpd 3] | < 100 | –
5 | CC1(C)[C@@H](O)C[C@H]1Nc1nc(NCc2cncnc2OCCC(F)(F)F)ncc1C#N [Cmpd 4] | < 100 | –
6 | CC(C)(O)CNc1nc(NCc2cnccc2C(F)(F)F)ncc1C#N [Cmpd 6] | – | 100 to 800
7 | CC1(C)C[C@H](Nc2nc(NCc3cncnc3OCCC(F)(F)F)ncc2C#N)CC[C@@H]1O [Cmpd 6] | < 100 | –
8 | CC1(C)[C@@H](O)C[C@H]1Nc1nc(NCc2cncnc2OCC(F)F)ncc1C(F)(F)F [Cmpd 7] | < 100 | –
9 | Cc1c(CO)cccc1Nc1nc(NCc2cnccc2C(F)(F)F)ncc1C#N [Cmpd 7] | – | 100 to 800
10 | CC1(C)C[C@H](Nc2nc(NCc3cncnc3OCCC(F)(F)F)ncc2C(F)(F)F)CC[C@@H]1O [Cmpd 8] | < 100 | –
11 | CC(F)(F)COc1ncncc1CNc1ncc(C(F)(F)F)c(N[C@@H]2C[C@H](O)C2(C)C)n1 [Cmpd 13] | < 100 | –
12 | CC(C)(CO)Nc1nc(NCc2cnccc2C(F)(F)F)ncc1C#N [Cmpd 15] | – | 100 to 800
13 | CC(C)(F)c1ncncc1CNc1ncc(C#N)c(N[C@@H]2C[C@H](CO)C2(C)C)n1 [Cmpd 15] | < 100 | –
14 | CC(F)(F)COc1ncncc1CNc1ncc(C#N)c(N[C@@H]2C[C@H](O)C2(C)C)n1 [Cmpd 16] | < 100 | –
15 | CNC(=O)[C@H]1CC[C@@H](Nc2nc(NCc3cnccc3C(F)(F)F)ncc2C(F)(F)F)CC1 [Cmpd 17] | < 100 | –
16 | CC1(C)C[C@H](Nc2nc(NCc3cnccc3C(F)(F)F)ncc2C(F)(F)F)CC[C@@H]1O [Cmpd 18] | < 100 | –
17 | Cc1ccc(Oc2ncncc2CNc2ncc(C(F)(F)F)c(N[C@H]3CC[C@@H](O)CC3)n2)cc1 [Cmpd 19] | < 100 | –
18 | CC(C)c1ncncc1CNc1ncc(C(F)(F)F)c(N[C@@H]2C[C@H](O)C2(C)C)n1 [Cmpd 20] | < 100 | –
19 | CC1(C)[C@@H](O)C[C@H]1Nc1nc(NCc2cnccc2C(F)(F)F)ncc1C(F)(F)F [Cmpd 24] | < 100 | –

Row | SMILES | IC50 [nM] | IC50 (Table 2) [nM]
20 | Cc1nnnn1-c1ccccc1CNc1ncc(C(F)(F)F)c(N[C@H]2CC[C@@H](O)C(C)(C)C2)n1 [Cmpd 24] | – | 2000 to 10000
21 | CCOc1ncncc1CNc1ncc(C(F)(F)F)c(N[C@@H]2CC[C@H](O)C(C)(C)C2)n1 [Cmpd 25] | < 100 | –
22 | Cc1ccc(Oc2ncncc2CNc2ncc(C#N)c(N[C@H]3CC[C@@](C)(O)CC3)n2)cc1 [Cmpd 28] | < 100 | –
23 | CC(F)(F)COc1ncncc1CNc1ncc(C(F)(F)F)c(N[C@@H]2CC[C@H](O)C(C)(C)C2)n1 [Cmpd 29] | < 100 | –
24 | CC1(C)C[C@H](Nc2nc(NCc3cncnc3C(F)(F)F)ncc2C(F)(F)F)CC[C@@H]1O [Cmpd 30] | < 100 | –
25 | Cc1ccc(Oc2ncncc2CNc2ncc(C(F)(F)F)c(N[C@H]3CC[C@@](C)(O)CC3)n2)cc1 [Cmpd 31] | < 100 | –
26 | CC1(C)[C@@H](CO)C[C@H]1Nc1nc(NCc2cnccc2C(F)(F)F)ncc1C(F)(F)F [Cmpd 32] | < 100 | –
27 | CC1(C)[C@H](O)C[C@H]1Nc1nc(NCc2cnccc2C(F)(F)F)ncc1C(F)(F)F [Cmpd 33] | < 100 | –
28 | CC(C)c1ncncc1CNc1ncc(C#N)c(N[C@@H]2C[C@H](O)C2(C)C)n1 [Cmpd 35] | < 100 | –
29 | Cc1ccc(CCNc2ncc(C#N)c(N[C@@H]3CC[C@H](O)C(C)(C)C3)n2)cc1C [Cmpd 35] | – | < 100
30 | COc1ccc(CCNc2ncc(C#N)c(N[C@@H]3CC[C@H](O)C(C)(C)C3)n2)cc1OC [Cmpd 36] | – | 100 to 800
31 | CC1(C)[C@@H](O)C[C@H]1Nc1nc(NCCc2ccc(C#N)cc2)ncc1C#N [Cmpd 38] | – | 100 to 800
32 | COc1ccc(C(CNc2ncc(C#N)c(N[C@@H]3CC[C@H](O)C(C)(C)C3)n2)N2CCOCC2)cc1 (stereo partly shown) [Cmpd 39] | – | 2000 to 10000
33 | CC(C)(CNc1ncc(C#N)c(N[C@@H]2C[C@H](O)C2(C)C)n1)c1cccc(Cl)c1 [Cmpd 40] | – | 2000 to 10000
34 | CC1(C)C[C@H](Nc2nc(NCc3c[n+]([O-])ccc3C(F)(F)F)ncc2C(F)(F)F)CC[C@@H]1O [Cmpd 40] | < 100 | –
35 | CC1(C)[C@@H](O)C[C@H]1Nc1nc(NCc2c[n+]([O-])ccc2C(F)(F)F)ncc1C(F)(F)F [Cmpd 41] | < 100 | –
36 | CC1(C)[C@@H](O)C[C@H]1Nc1nc(NCC(F)(F)c2ccccc2)ncc1C#N [Cmpd 43] | – | 100 to 800
37 | CC1(C)[C@@H](O)C[C@H]1Nc1nc(NCCc2ccccc2C(F)(F)F)ncc1C#N [Cmpd 44] | – | 100 to 800

The remaining lines, values ahead:

Row | IC50 [nM] | IC50 (Table 2) [nM] | SMILES
38 | – | < 100 | Cc1nnnn1-c1ccccc1CNc1ncc(C#N)c(NC2CCC(O)C(C)(C)C2)n1 (stereo not shown) [Cmpd 1]
39 | – | < 100 | N#Cc1cnc(NCc2cc(F)ccc2C(F)(F)F)nc1N[C@H]1CC[C@@H](O)CC1 [Cmpd 3]
40 | – | 100 to 800 | N#Cc1cnc(NCc2ccccc2OC(F)F)nc1N[C@H]1CC[C@@H](O)CC1 [Cmpd 4]
41 | – | 100 to 800 | CC(C)Oc1ccccc1CNc1ncc(C#N)c(N[C@H]2CC[C@@H](O)CC2)n1 [Cmpd 5]
42 | – | 100 to 800 | N#Cc1cnc(NCc2ccccc2C(F)(F)F)nc1N[C@H]1CC[C@@H](O)CC1 [Cmpd 8]
43 | – | 100 to 800 | N#Cc1cnc(NCc2ccccc2Cl)nc1N[C@H]1CC[C@@H](O)CC1 [Cmpd 9]
44 | < 100 | – | CC(C)(F)c1ncncc1CNc1ncc(C#N)c(N[C@@H]2CC[C@H](O)C(C)(C)C2)n1 [Cmpd 10]
45 | – | 100 to 800 | N#Cc1cnc(NCc2ccccc2-c2ccccc2)nc1N[C@H]1CC[C@@H](O)CC1 [Cmpd 10]
46 | – | 800 to 2000 | N#Cc1cnc(NCc2ccccc2Oc2ccc(F)cc2)nc1N[C@H]1CC[C@@H](O)CC1 [Cmpd 12]
47 | – | 800 to 2000 | N#Cc1cnc(NCc2ccccc2N2CCOCC2)nc1N[C@H]1CC[C@@H](O)CC1 [Cmpd 13]
48 | – | 100 to 800 | N#Cc1cnc(NCc2c(F)cccc2Cl)nc1N[C@H]1CC[C@@H](O)CC1 [Cmpd 16]
49 | – | 800 to 2000 | N#Cc1cnc(NCc2ccccc2OC(F)(F)F)nc1N[C@H]1CC[C@@H](O)CC1 [Cmpd 17]
50 | – | 2000 to 10000 | Cc1nnnn1-c1ccccc1CNc1ncc(C#N)c(N[C@@H]2CC[C@@H](O)C(C)(C)C2)n1 [Cmpd 18]
51 | – | 2000 to 10000 | Cc1ccccc1CNc1ncc(C#N)c(N[C@H]2CC[C@@H](O)CC2)n1 [Cmpd 19]
52 | – | 2000 to 10000 | N#Cc1cnc(NCc2ccc(F)cc2F)nc1N[C@H]1CC[C@@H](O)CC1 [Cmpd 20]
53 | < 100 | – | CC1(C)C[C@H](Nc2nc(NCc3cncnc3OCCF)ncc2C#N)CC[C@@H]1O [Cmpd 21]
54 | – | 2000 to 10000 | N#Cc1cnc(NCc2ccccc2-n2cccn2)nc1N[C@H]1CC[C@@H](O)CC1 [Cmpd 21]
55 | < 100 | – | CNC(=O)[C@H]1CC[C@@H](Nc2nc(NCc3cncnc3Oc3cccc(C)c3)ncc2C#N)CC1 [Cmpd 22]
56 | – | 2000 to 10000 | COc1cccc(F)c1CNc1ncc(C#N)c(N[C@H]2CC[C@@H](O)CC2)n1 [Cmpd 22]
57 | – | 2000 to 10000 | CCOc1cccc(F)c1CNc1ncc(C#N)c(N[C@H]2CC[C@@H](O)CC2)n1 [Cmpd 23]

Row | IC50 [nM] | IC50 (Table 2) [nM] | SMILES
58 | – | 2000 to 10000 | Cc1nnnn1-c1ccccc1CNc1ncc(C#N)c(N[C@H]2CC[C@@H](O)C(C)(C)C2)n1 [Cmpd 25]
59 | < 100 | – | Cc1ccc(Oc2ncncc2CNc2ncc(C#N)c(N[C@H]3CC[C@@H](O)CC3)n2)cc1 [Cmpd 26]
60 | – | 2000 to 10000 | CN1CCN(c2ccccc2CNc2ncc(C#N)c(N[C@H]3CC[C@@H](O)CC3)n2)CC1 [Cmpd 27]
61 | – | 2000 to 10000 | N#Cc1cnc(NCc2ccccc2)nc1N[C@H]1CC[C@@H](O)CC1 [Cmpd 28]
62 | – | < 100 | CC1(C)C[C@H](Nc2nc(NCCc3ccc(O)cc3)ncc2C#N)CC[C@@H]1O [Cmpd 29]
63 | – | 100 to 800 | COc1ccccc1CCNc1ncc(C#N)c(N[C@@H]2CC[C@H](O)C(C)(C)C2)n1 [Cmpd 30]
64 | – | < 100 | COc1cccc(CCNc2ncc(C#N)c(N[C@@H]3CC[C@H](O)C(C)(C)C3)n2)c1 [Cmpd 31]
65 | – | < 100 | CC1(C)C[C@H](Nc2nc(NCCc3cccc(Cl)c3)ncc2C#N)CC[C@@H]1O [Cmpd 32]
66 | – | 100 to 800 | CC1(C)C[C@H](Nc2nc(NCCc3ccc(Cl)cc3)ncc2C#N)CC[C@@H]1O [Cmpd 33]
67 | < 100 | – | CC1(C)C[C@H](Nc2nc(NCc3cncnc3OCC(F)F)ncc2C#N)CC[C@@H]1O [Cmpd 34]
68 | – | 100 to 800 | CCc1ccc(CCNc2ncc(C#N)c(N[C@@H]3CC[C@H](O)C(C)(C)C3)n2)cc1 [Cmpd 34]
69 | < 100 | – | CC(F)(F)c1ncncc1CNc1ncc(C#N)c(N[C@@H]2CC[C@H](O)C(C)(C)C2)n1 [Cmpd 36]
70 | – | 100 to 800 | CC1(C)C[C@H](Nc2nc(NCCc3ccc(C#N)cc3)ncc2C#N)CC[C@@H]1O [Cmpd 37]
71 | < 100 | – | CCOc1ncncc1CNc1ncc(C#N)c(N[C@@H]2CC[C@H](O)C(C)(C)C2)n1 [Cmpd 37]
72 | < 100 | – | Cc1cccc(Oc2ncncc2CNc2ncc(C#N)c(N[C@H]3CC[C@@](C)(O)CC3)n2)c1 [Cmpd 38]
73 | – | 800 to 2000 | C[C@@H](CNc1ncc(C#N)c(N[C@@H]2C[C@H](O)C2(C)C)n1)c1ccccc1 [Cmpd 41]
74 | < 100 | – | CC1(C)C[C@H](Nc2nc(NCc3c[n+]([O-])ccc3C(F)(F)F)ncc2C#N)CC[C@@H]1O [Cmpd 42]
75 | – | 100 to 800 | C[C@H](CNc1ncc(C#N)c(N[C@@H]2C[C@H](O)C2(C)C)n1)c1ccccc1 [Cmpd 42]
76 | < 100 | – | CC1(C)C[C@H](Nc2nc(NCc3cncnc3C(F)(F)F)ncc2C#N)CC[C@@H]1O [Cmpd 43]
